Measured values taken from patent US11957759B1, “Rapidly accelerated fibrosarcoma (RAF) degrading compounds and associated methods of use” (Arvinas Operations, Inc., priority 2022, dated 2024).

What was measured:
B-RAF V600E = biological target: T1, B-RAF V600E (Homo sapiens, UniProt P15056, V600E); test: Target protein degradation, assay C: T-Rex 293 cells, HA-BRAF_V600E, 384 well format; type: cell-based; conditions: T-Rex 293 HA-BRAF_V600E cells, 24 hours, Examples 83-269; for DC50: Assay C; for Dmax: T-REx-293, Assay C
T1 construct: expressed in transfected cells; host or cells: T-Rex 293 cells (Invitrogen #R71007)
T1 sequence (P15056 whole entry V600E): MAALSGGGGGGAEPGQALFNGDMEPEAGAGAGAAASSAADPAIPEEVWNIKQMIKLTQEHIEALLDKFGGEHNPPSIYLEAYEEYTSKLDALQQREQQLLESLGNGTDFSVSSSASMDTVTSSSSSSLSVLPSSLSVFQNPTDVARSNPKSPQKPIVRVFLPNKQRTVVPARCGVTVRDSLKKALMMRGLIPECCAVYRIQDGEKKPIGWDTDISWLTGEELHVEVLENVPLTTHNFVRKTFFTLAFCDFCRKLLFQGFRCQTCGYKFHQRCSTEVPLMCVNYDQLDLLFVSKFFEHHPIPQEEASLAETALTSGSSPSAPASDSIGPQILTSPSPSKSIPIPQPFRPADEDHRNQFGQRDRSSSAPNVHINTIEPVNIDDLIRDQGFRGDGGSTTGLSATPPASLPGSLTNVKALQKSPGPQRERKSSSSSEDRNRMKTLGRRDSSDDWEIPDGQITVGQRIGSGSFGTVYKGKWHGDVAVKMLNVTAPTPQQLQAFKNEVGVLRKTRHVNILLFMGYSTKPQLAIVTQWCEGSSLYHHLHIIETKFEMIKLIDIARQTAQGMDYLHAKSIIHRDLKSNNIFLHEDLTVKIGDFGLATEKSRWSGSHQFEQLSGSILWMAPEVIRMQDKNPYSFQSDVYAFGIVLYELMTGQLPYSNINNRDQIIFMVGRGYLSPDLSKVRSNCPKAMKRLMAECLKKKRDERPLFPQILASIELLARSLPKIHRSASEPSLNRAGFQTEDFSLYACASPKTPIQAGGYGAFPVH
Summary of the method: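 After 24 h exposure to an 11-point 1:3 series (300 nM–5 pM, 0.5% DMSO), fixed T-Rex 293 cells carrying HA-BRAF V600E (induced with 1 ng/mL doxycycline) were stained anti-HA and imaged. DC50 and Dmax were derived from BRAF intensity relative to control, and cytotoxicity from nuclear counts.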

B-RAF G466V = biological target: T2, B-RAF G466V (Homo sapiens, UniProt P15056, G466V); test: Target protein degradation, assay D: T-Rex 293 cells, HA-BRAF_G466V, 384 well format; type: cell-based; conditions: T-Rex 293 HA-BRAF_G466V cells, 24 hours, Examples 83-269; for DC50: Assay D; for Dmax: T-REx-293, Assay D
T2 construct: expressed in transfected cells; host or cells: T-Rex 293 cells (Invitrogen #R71007)
T2 sequence (P15056 whole entry G466V): as the sequence (P15056 whole entry V600E) above, with G466V, E600V counted along it
Summary of the method: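 Degradation measured by high-content imaging of anti-HA immunofluorescence in fixed T-Rex 293 cells carrying inducible HA-BRAF G466V (1 ng/mL doxycycline), after 24 h PROTAC exposure at 37 °C over 300 nM–5 pM (1:3, 11 points, 0.5% DMSO). Outputs DC50 and Dmax as % of control; nuclei counts against DMSO wells gauge toxicity.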

Cc1c(N2CCC(CN3CCN(c4ccc(-n5cnc6ccc(Oc7c(F)ccc(NS(=O)(=O)N8CC[C@@H](F)C8)c7C#N)cc6c5=O)cc4)CC3)CC2)ccc2c1CN(C1CCC(=O)NC1=O)C2=O (single isomer, unassigned) [Example 111, (3R)-N-(2-cyano-3-{[3-(4-{4-[(1-{2-[(3R*)-2,6-dioxopiperidin-3-yl]-4-methyl-1-oxo-2,3-dihydro-1H-isoindol-5-yl}piperidin-4-yl)methyl]piperazin-1-yl}phenyl)-4-oxo-3,4-dihydroquinazolin-6-yl]oxy}-4-fluorophenyl)-3-fluoropyrrolidine-1-sulfonamide]
DC50 (B-RAF V600E): 50 to 500 nM | Dmax (B-RAF V600E): 35 to 70% | DC50 (B-RAF G466V): 1 to 10 nM | Dmax (B-RAF G466V): 35 to 70%

N#Cc1c(NS(=O)(=O)N2CC[C@@H](F)C2)ccc(F)c1Oc1ccc2ncn(-c3ccc(N4CCC(CN5CC6(CCC(c7ccc8c(c7)CN(C7CCC(=O)NC7=O)C8=O)CC6)C5)C4)cc3)c(=O)c2c1 (single isomer, unassigned) [Example 261, (3R)-N-(2-cyano-3-{[3-(4-{3-[(7-{2-[(3R*)-2,6-dioxopiperidin-3-yl]-1-oxo-2,3-dihydro-1H-isoindol-5-yl}-2-azaspiro[3.5]nonan-2-yl)methyl]pyrrolidin-1-yl}phenyl)-4-oxo-3,4-dihydroquinazolin-6-yl]oxy}-4-fluorophenyl)-3-fluoropyrrolidine-1-sulfonamide]
DC50 (B-RAF V600E): 50 to 500 nM | DC50 (B-RAF G466V): 1 to 10 nM

N#Cc1c(NS(=O)(=O)N2CC[C@@H](F)C2)ccc(F)c1Oc1ccc2ncn(-c3ccc(N4CCC(CN5CC6(C5)CN(c5cccc7c5C(=O)N(C5CCC(=O)NC5=O)C7=O)C6)CC4)nc3)c(=O)c2c1 (stereo partly drawn) [Example 173, (3R)-N-{2-cyano-3-[(3-{6-[4-({6-[2-(2,6-dioxopiperidin-3-yl)-1,3-dioxo-2,3-dihydro-1H-isoindol-4-yl]-2,6-diazaspiro[3.3]heptan-2-yl}methyl)piperidin-1-yl]pyridin-3-yl}-4-oxo-3,4-dihydroquinazolin-6-yl)oxy]-4-fluorophenyl}-3-fluoropyrrolidine-1-sulfonamide]
DC50 (B-RAF V600E): 50 to 500 nM | Dmax (B-RAF V600E): 35 to 70% | DC50 (B-RAF G466V): > 30 nM

COc1cc(N2CC(CN3CCN(c4ccc(-n5cnc6ccc(Oc7c(F)ccc(NS(=O)(=O)N8CC[C@@H](F)C8)c7C#N)cc6c5=O)cc4)CC3)C2)cc2c1C(=O)N([C@@H]1CCC(=O)NC1=O)C2 [Example 237, (3R)-N-(2-cyano-3-{[3-(4-{4-[(1-{2-[(3R)-2,6-dioxopiperidin-3-yl]-7-methoxy-1-oxo-2,3-dihydro-1H-isoindol-5-yl}azetidin-3-yl)methyl]piperazin-1-yl}phenyl)-4-oxo-3,4-dihydroquinazolin-6-yl]oxy}-4-fluorophenyl)-3-fluoropyrrolidine-1-sulfonamide]
DC50 (B-RAF V600E): 50 to 500 nM | Dmax (B-RAF V600E): 35 to 70% | DC50 (B-RAF G466V): 1 to 10 nM | Dmax (B-RAF G466V): ≥ 70%

N#Cc1c(NS(=O)(=O)N2CC[C@@H](F)C2)ccc(F)c1Oc1ccc2ncn(-c3ccc(N4CCC5(CCN(c6ccc7c(c6)C(=O)N(C6CCC(=O)NC6=O)C7=O)CC5)CC4)nc3)c(=O)c2c1 (stereo partly drawn) [Example 148, (3R)-N-(2-cyano-3-{[3-(6-{9-[2-(2,6-dioxopiperidin-3-yl)-1,3-dioxo-2,3-dihydro-1H-isoindol-5-yl]-3,9-diazaspiro[5.5]undecan-3-yl}pyridin-3-yl)-4-oxo-3,4-dihydroquinazolin-6-yl]oxy}-4-fluorophenyl)-3-fluoropyrrolidine-1-sulfonamide]
DC50 (B-RAF V600E): 50 to 500 nM | Dmax (B-RAF V600E): ≤ 35% | DC50 (B-RAF G466V): > 30 nM

N#Cc1c(NS(=O)(=O)N2CC[C@@H](F)C2)ccc(F)c1Oc1ccc2ncn(-c3cnc(N4CCCC4CC4CCN(c5ccc6c(c5)C(=O)N(C5CCC(=O)NC5=O)C6=O)CC4)nc3)c(=O)c2c1 (stereo partly drawn) [Example 130, (3R)-N-{2-cyano-3-[(3-{2-[2-({1-[2-(2,6-dioxopiperidin-3-yl)-1,3-dioxo-2,3-dihydro-1H-isoindol-5-yl]piperidin-4-yl}methyl)pyrrolidin-1-yl]pyrimidin-5-yl}-4-oxo-3,4-dihydroquinazolin-6-yl)oxy]-4-fluorophenyl}-3-fluoropyrrolidine-1-sulfonamide]
DC50 (B-RAF V600E): > 500 nM | DC50 (B-RAF G466V): 10 to 30 nM | Dmax (B-RAF G466V): ≤ 35%
